Laboratory results: US5206162A, “Process for making D-aminoacylase” (National Science Council of Republic of China, priority 1991, dated 1993)
Like-named read-outs stand apart in the source and are kept apart here.

How the values were obtained:
Format in all cases: biochemical
D-aminoacylase [1] = molecular target: T1, D-aminoacylase (Alcaligenes faecalis, UniProt Q9AGH8); experiment: Influence of metallic ions on D-aminoacylase activities; settings: 1 mM metallic ion, 50 mM Tris-HCl pH 7.8, 30 minutes at 37° C., ninhydrin method
T1 sequence (Q9AGH8 1-484): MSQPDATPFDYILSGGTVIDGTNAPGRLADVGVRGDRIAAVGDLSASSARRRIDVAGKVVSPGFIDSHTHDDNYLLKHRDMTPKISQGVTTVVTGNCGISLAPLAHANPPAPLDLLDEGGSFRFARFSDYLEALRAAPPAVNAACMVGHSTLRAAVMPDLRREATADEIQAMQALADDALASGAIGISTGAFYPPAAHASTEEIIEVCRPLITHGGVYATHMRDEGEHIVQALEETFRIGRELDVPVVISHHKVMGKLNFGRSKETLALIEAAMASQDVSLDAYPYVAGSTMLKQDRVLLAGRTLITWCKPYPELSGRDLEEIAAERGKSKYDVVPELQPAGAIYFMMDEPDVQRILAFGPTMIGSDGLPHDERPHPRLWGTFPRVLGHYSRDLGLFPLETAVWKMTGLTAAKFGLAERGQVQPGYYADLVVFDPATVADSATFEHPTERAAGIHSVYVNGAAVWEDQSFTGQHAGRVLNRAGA

D-aminoacylase [2] = molecular target: T1, D-aminoacylase; experiment: Reagents (inhibitors) influencing the D-aminoacylase activities
D-aminoacylase [3] = molecular target: T1, D-aminoacylase; experiment: Substrate specificity of D-aminoacylase (hydrolysis of N-acyl amino acids, ninhydrin method); settings: for Relative Activity D-form: D-form of the substrate, N-acetyl-D-methionine = 100; for Relative Activity L-form: L-form of the substrate, relative to N-acetyl-D-methionine = 100
Description: The activity of D-aminoacylase obtained by the method of this invention may be measured in accordance with Rosen method by using suitable amount of enzyme to decompose N-acetyl-D-methionine, of which the produced D-methionine may be quantitatively measured by D-amino acid oxidase or by ninhydrin method. [Note: H. Rosen, A modified ninhydrin colorimetric analysis for amino acids. Arch. Biochem. Biophys. 67:10-15 (1957)].
The activity unit of enzyme of this invention is defined herewith as the enzyme quantity required for decomposing 10 mM N-acetyl-D-methionine solution for releasing 1μ mole D-methionine per minute at 37° C.
The D-aminoacylase of this invention (hereinafter simply designated as "the acylase") may hydrolyze N-acyl-D-amino acids, but only slightly hydrolyze the N-acyl-L-amino acids.

[4] = 1 mM inhibitor, 50 mM Tris-HCl pH 7.8, 30 minutes at 37° C., ninhydrin method, read-out: Residual activities %

Relative Activity D-form (D-aminoacylase [3]) | Relative Activity L-form (D-aminoacylase [3]) | Compound | Residual activities % (D-aminoacylase [1]) [%] | other results
 |  | [Ba+2].[Cl-].[Cl-] [BaCl2] | 99 | 
 |  | [Ca+2].[Cl-].[Cl-] [CaCl2] | 99 | 
 |  | [Cl][Cd][Cl] [CdCl2] | 0 | 
 |  | [Cl-].[Cl-].[Co+2] [CoCl2] | 96 | 
 |  | [Cl][Cu][Cl] [CuCl2] | 15 | 
 |  | O=C(O)CN(CCN(CC(=O)O)CC(=O)O)CC(=O)O [EDTA] |  | Inhibition of the enzyme by reagent (in words) (D-aminoacylase [2]): inhibited; remaining activity at 1000 µM (D-aminoacylase [2]; pH 7.8, read-out: Residual activities %): 22%
 |  | [Cl][Fe][Cl] [FeCl2] | 60 | 
 |  | [Cl][Hg][Cl] [HgCl2] | 0 | 
 |  | [Cl-].[Cl-].[Mg+2] [MgCl2] | 95 | 
 |  | [Cl][Mn][Cl] [MnCl2] | 70 | 
 |  | CSCC[C@@H](NC(C)=O)C(=O)O [N-acetyl-D-methionine] |  | Hydrolysis by the acylase (in words) (D-aminoacylase [3]): strongest
14 | 0.7 | CC(=O)N[C@@H](C)C(=O)O [N-acetyl-alanine] |  | 
8 | 0 | CC(=O)N[C@@H](CC(N)=O)C(=O)O [N-acetyl-asparagine] |  | 
40 | 0.4 | CC(=O)NC(CC(C)C)C(=O)O (stereo not shown) [N-acetyl-leuoine] |  | 
100 | 0.8 | CSCC[C@H](NC(C)=O)C(=O)O [N-acetyl-methionine] |  | 
80 | 0.8 | CC(=O)N[C@@H](Cc1ccccc1)C(=O)O [N-acetyl-phenylalanine] |  | 
3 | 0 | CC(=O)NC(C(=O)O)c1ccccc1 (stereo not shown) [N-acetyl-phenylglycine] |  | 
14 | 0 | CC(=O)N[C@@H](Cc1c[nH]c2ccccc12)C(=O)O [N-acetyl-tryptophan] |  | 
6 | 0 | CC(=O)N[C@H](C(=O)O)C(C)C [N-acetyl-valine] |  | 
42 | 0.6 | CC(C)[C@H](NC(=O)CCl)C(=O)O [N-chloroacetyl-valine] |  | 
 |  | CCN1C(=O)C=CC1=O [N-ethylmaleimide] |  | remaining activity at 1000 µM (D-aminoacylase [2]; [4]): 36%; Inhibition of the enzyme by reagent (in words) (D-aminoacylase [2]; 1 mM, 37° C., 30 minutes): inhibited
 |  | [Cl][Ni][Cl] [NiCl2] | 89 | 
 |  | [Cl-].[Cl-].[Sr+2] [SrCl2] | 87 | 
 |  | [Cl-].[Cl-].[Zn+2] [Zncl2] | 0 | 
 |  | NC(=O)CI [iodoacetamide] |  | remaining activity at 1000 µM (D-aminoacylase [2]; [4]): 97%
 |  | O=C(O)c1cc[c]([Hg][Cl])cc1 [p-chloromercuibenzoic acid] |  | Residual activities % (D-aminoacylase [2]; 1 mM inhibitor, 50 mM Tris-HCl pH 7.8, 30 minutes at 37° C., ninhydrin method): 0%; Inhibition of the enzyme by reagent (in words) (D-aminoacylase [2]; 1 mM, 37° C., 30 minutes): inhibited
 |  | O=CC(=O)c1ccccc1 [phenylglyoxal] |  | remaining activity at 1000 µM (D-aminoacylase [2]; [4]): 65%; Inhibition of the enzyme by reagent (in words) (D-aminoacylase [2]; 1 mM, 37° C., 30 minutes): inhibited
